From paper PMC9633101 (Science signaling, 2022)

Biological target: T1, TRPL (TRPL::EGFP) (Drosophila melanogaster, UniProt P48994)
T1 sequence (P48994 1-1124): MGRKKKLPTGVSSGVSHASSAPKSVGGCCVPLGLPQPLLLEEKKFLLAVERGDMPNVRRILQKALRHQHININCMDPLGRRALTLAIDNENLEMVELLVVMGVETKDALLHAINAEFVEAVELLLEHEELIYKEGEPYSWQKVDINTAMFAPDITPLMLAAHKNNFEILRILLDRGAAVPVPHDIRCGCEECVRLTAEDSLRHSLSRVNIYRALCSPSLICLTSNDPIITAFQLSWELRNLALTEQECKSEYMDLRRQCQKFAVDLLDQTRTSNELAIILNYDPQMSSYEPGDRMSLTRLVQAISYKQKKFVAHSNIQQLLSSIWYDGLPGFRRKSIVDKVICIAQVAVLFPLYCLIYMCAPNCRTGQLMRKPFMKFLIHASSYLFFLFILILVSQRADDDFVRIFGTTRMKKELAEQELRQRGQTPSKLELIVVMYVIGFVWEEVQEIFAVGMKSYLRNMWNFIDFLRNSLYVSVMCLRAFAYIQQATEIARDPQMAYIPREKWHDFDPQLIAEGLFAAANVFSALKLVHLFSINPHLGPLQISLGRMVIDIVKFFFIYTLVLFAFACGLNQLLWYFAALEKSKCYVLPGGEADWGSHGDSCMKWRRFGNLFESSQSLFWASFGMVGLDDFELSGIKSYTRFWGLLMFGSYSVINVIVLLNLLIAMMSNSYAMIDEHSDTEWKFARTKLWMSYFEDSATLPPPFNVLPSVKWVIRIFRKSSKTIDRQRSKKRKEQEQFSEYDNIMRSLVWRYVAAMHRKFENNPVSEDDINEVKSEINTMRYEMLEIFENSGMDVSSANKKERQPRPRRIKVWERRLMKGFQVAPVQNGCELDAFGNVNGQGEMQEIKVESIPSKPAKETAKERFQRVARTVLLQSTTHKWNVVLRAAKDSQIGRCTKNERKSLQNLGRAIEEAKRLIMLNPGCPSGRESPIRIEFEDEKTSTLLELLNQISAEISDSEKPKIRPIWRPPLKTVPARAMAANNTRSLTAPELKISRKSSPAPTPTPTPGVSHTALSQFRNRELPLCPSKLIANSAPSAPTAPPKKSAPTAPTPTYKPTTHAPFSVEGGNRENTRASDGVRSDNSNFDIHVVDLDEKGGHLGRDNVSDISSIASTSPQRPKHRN
Assay: Fura-2 Ca2+ imaging, S2 cells
Format: cell-based

| SMILES | EC50 |
| --- | --- |
| CCCCC/C=C\C/C=C\CCCCCCCC(=O)OC(CO)CO [2-LG, 2-linoleoyl glycerol] | 5.23 µM |
| CCCCC/C=C\C/C=C\CCCCCCCC(=O)NCCO [LEA, linoleoyl ethanolamide] | 7.04 µM |
| CCCCC/C=C\C/C=C\CCCCCCCC(=O)NCC(=O)O [LinGly, linoleoyl glycine] | 2.99 µM |
